Here are results for one substance from US9702866B2, “Glatiramer acetate human monocytic cell line-based potency assay” (SYNTHON B.V., priority 2013, dated 2017).

For data set [1], the system named is THP-1 cells. Nature of the data set: lactate dehydrogenase (LDH) release as marker for cell death in IFNγ-activated THP-1 cells. Type of data set: cell-based, human. The conditions noted are these: 100 μg/ml glatiramer acetate, IFNγ (10 ng/ml)-activated THP-1 cells.
Data set [2] has as its system THP-1 cells. Nature of the data set: cell viability by ATP levels (CellTiter-Glo) in IFNγ-activated THP-1 cells. The conditions noted are these: IFNγ (25 ng/ml)-activated THP-1 cells, after 120 h of culture. Type of data set: cell-based, human. As for the experimental part: In another embodiment of the present invention, the viability of human monocytic cell line cells, particularly THP-1 cells, is measured. Suitable methods to determine viability of human monocytic cell line cells are well-known to the person skilled in the art. One suitable method is measuring ATP levels (for instance the CellTiter-Glo® Luminescent Cell Viability Assay is a homogeneous method to determine the number of viable cells in culture based on quantitation of the ATP present, which signals the presence of metabolically active cells) after a suitable time period, typically after 96-144 hours, particularly after 120 hours. When determining the number of viable cells, similar or slightly higher concentrations of IFNγ can be used as described above.
Upon confirmation of parallelism the reduced model will be fitted and the EC50 for the Reference and test batch will be estimated by EC50RS and EC50TA respectively. The relative potency of the test batch will be estimated as: Relative potency=EC50RS/EC50TA*100% Cell Viability • The number of metabolically active cells in the cultures is determined by the CellTiter-Glo® Luminescent Cell Viability Assay (Promega, G7571). […] It is based on quantitation of adenosine tri-phosphate (ATP), which signals the presence of metabolically active cells.

Another data set has as its system human monocytes. The conditions noted are these: human monocytes in vitro; cited from earlier work.
The subject of data set [3] is Human leukemic monocyte lymphoma cells (U937). The data set can be described thus: responsiveness of U937 cells to GA. Type of data set: cell-based.
The conditions of data set [4]: MS patients, in vivo; cited from earlier work.
Data set [5] deals with THP-1 cells. The data set can be described thus: sIL-1Ra expression of IFNγ-stimulated THP-1 cells after exposure to GA (ELISA). Type of data set: cell-based, human. The conditions noted are these: THP-1 cells in the presence of IFNγ. As for the experimental part: • Add 10 ml RPMI-1640 Medium (Lonza/Cambrex, #12-70F) with 10% FBS (fetal bovine serum) to a 15 ml sterile tube. • Remove one vial of THP-1 cells (ATCC, #TIB-202) from the liquid nitrogen storage tank and thaw the cells in the vial by gentle agitation in a 37° C.±1° C. water bath until almost totally thawed. • Sterilize the outside of the vial using a wipe, soaked in 70% (v/v) ethanol. • Using good aseptic technique, open the vial and transfer the contents of the vial into a Falcon tube, adding 10 ml of the pre-warmed RPMI-1640 plus 10% FBS. • Spin down at approximately 200 g for 5 minutes. Afterwards, discard the supernatant. • Resuspend the pellet into 10 ml pre-warmed RPMI-1640 plus 10% FBS, and transfer the cell suspension to a T-25 culture flask. • Place the T-25 cell culture flask into a humidified incubator at 37±1° C. and 5.0±1% CO2. Sub-Culturing (Passaging) of THP-1 Cells • THP-1 cells are sub-cultured every 3 or 4 days. • Collect cells and spin down at 200 g for 5 min. […] Supernatant Harvest and ELISA • After 72 hours of incubation centrifuge the 96-well plate at 200 g for 5 minutes. • Transfer 125 μl of the cell-free supernatant/well to a storage plate. • sIL-1Ra is determined in the cell supernatants using the sIL-1Ra ELISA kit from Quantikine, R&D, Minneapolis, Minn. […]

For Glatiramer acetate [GA], the “cell death (LDH release)” value with THP-1 cells [1] is on record as “induces cell death”. Also, the “cell viability (ATP levels)” value with THP-1 cells [2] is given as “cell viability inhibition”. For the same substance, the “production of sIL-1Ra in monocytes” value in the data set on human monocytes is on record as “induces the production”. In addition, the “responsiveness of cells to GA” value in data set [3] is reported as “not responsive”. The sIL-1Ra circulating levels entry in data set [4] is given as “enhances sIL-1Ra circulating levels”. Also, in the data set with THP-1 cells [5], the sIL-1Ra secretion result was “induces sIL-1Ra secretion”.
